According to the SangsterLogP compilation:

Row | SMILES | logP
1 | O=C1CC(Oc2ccccc2C(=O)c2ccccc2)N1 (stereo unspecified) | 1.83
2 | O=C1CC(Oc2ccc3ccccc3c2)N1 (stereo unspecified) | 2.29
3 | O=C1CC(Oc2c3ccccc3cc3ccccc23)N1 (stereo unspecified) | 3.08
4 | O=C1CC(Sc2ccccn2)N1 (stereo unspecified) | 1.81
5 | O=C1CC(Sc2ccccc2C(=O)OCc2ccccc2)N1 (stereo unspecified) | 2.62
6 | O=C1CC(Sc2ccc(Cl)cc2)N1 (stereo unspecified) | 2.31
7 | O=C1CC(Sc2ccc3ccccc3c2)N1 (stereo unspecified) | 2.64
8 | O=C1CC(Oc2ccc([N+](=O)[O-])cc2)N1 (stereo unspecified) | 1.85
9 | O=C1C[C@@H](Sc2ccccc2)N1 | 1.91
10 | O=C1CC(Oc2cccc(C(=O)OCc3ccccc3)c2)N1 (stereo unspecified) | 2.83
11 | O=C1CC(Oc2cccc3ccccc23)N1 (stereo unspecified) | 2.66
12 | O=C1CC(Oc2ccccc2)N1 (stereo unspecified) | 1.94
13 | O=C1CC(Oc2ccc(-c3ccccc3)cc2)N1 (stereo unspecified) | 2.61

Continued, values first:

Row | logP | SMILES
14 | 2.14 | O=C1CC(Oc2ccc(C(=O)c3ccccc3)cc2)N1 (stereo unspecified)
15 | 3.4 | CCOC(=O)CN1C(=O)CC1Sc1ccc2ccccc2c1 (stereo unspecified)
16 | 2.8 | CCOC(=O)CN1C(=O)CC1Oc1ccc2ccccc2c1 (stereo unspecified)
17 | 3.6 | CC(C)(C)OC(=O)CN1C(=O)CC1Oc1ccc2ccccc2c1 (stereo unspecified)
18 | 2.56 | O=C1CC(Oc2ccc(C(=O)/C=C/c3ccccc3)cc2)N1 (stereo unspecified)
19 | 2.48 | O=C1CC(Oc2ccc(C(=O)CCc3ccccc3)cc2)N1 (stereo unspecified)
20 | 3 | CCOC(=O)CN1C(=O)CC1Oc1ccc(C(=O)c2ccccc2)cc1 (stereo unspecified)
21 | 3.3 | CCOC(=O)CN1C(=O)CC1Oc1ccc(C(=O)C=Cc2ccccc2)cc1 (stereo unspecified)
